{"source": "paper PMC2785468", "about": "“Androgen Receptor Mutations Associated with Androgen Insensitivity Syndrome: A High Content Analysis Approach Leading to Personalized Medicine” (PLoS ONE, 2009)", "key": {"[1]": {"tested_on": "F764L mutation", "design": "method as in PMID 7929841", "conditions": "MMTV-luc reporter, transfected CV1 cells; cited from earlier work"}, "[2]": {"target": "T1, AR-F764L (Homo sapiens, UniProt P10275, F765L)", "T1 construct": "segments AR 624-919 (wild type or containing mutations F764L, R840C, and P766S); expressed in transfected cells; host or cells: HeLa, transient co-transfection", "T1 sequence (P10275 624-919 F765L)": "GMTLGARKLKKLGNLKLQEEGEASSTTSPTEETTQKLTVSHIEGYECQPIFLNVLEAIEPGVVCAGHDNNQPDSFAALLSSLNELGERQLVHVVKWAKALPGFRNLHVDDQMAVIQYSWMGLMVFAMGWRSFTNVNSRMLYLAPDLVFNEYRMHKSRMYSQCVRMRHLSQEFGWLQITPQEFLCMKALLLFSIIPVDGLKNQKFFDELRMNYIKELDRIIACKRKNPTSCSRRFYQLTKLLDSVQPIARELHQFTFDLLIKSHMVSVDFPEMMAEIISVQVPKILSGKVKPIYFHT", "T1 sequence (P10275 1-660 partner limits assumed)": "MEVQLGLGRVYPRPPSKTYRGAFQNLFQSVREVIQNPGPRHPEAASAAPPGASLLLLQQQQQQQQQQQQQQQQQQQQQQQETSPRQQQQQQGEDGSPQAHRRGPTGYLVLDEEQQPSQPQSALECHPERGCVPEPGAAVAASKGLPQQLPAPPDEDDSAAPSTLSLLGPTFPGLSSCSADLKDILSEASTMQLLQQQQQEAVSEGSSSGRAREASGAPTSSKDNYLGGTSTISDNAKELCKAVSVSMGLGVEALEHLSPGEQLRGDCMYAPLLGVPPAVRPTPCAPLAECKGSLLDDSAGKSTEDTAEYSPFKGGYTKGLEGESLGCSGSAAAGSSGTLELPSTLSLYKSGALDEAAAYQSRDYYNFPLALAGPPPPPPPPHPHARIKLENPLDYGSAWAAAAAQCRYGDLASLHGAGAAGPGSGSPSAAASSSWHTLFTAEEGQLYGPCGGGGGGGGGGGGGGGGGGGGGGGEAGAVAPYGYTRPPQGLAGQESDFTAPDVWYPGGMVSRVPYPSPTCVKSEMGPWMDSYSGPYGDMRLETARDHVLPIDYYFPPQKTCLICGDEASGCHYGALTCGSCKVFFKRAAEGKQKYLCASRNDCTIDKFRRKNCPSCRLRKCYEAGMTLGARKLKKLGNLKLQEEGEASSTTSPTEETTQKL", "assay_type": "cell-based", "procedure": "(§1) An interaction between COOH terminal AF2 (activation function 2) and NH2 terminal sequence F^23XXLF^27 is an important step toward the activation of AR [30]. The NC-TDI was measured using the reagents of the CheckMate™/Flexi® Vector Mammalian Two-Hybrid System, Promega (Madison, WI). […] One day before transfection, 1.5×10^6 Hela cells were seeded into a 60 mm dish. […] After 12 hours of transfection, cells were trypsinized and equally seeded into nine wells of a 12 well plate, with one well treated with vehicle and others with various concentration of different ligand. After 24 h of treatment, luciferase activity was assayed with the Promega Dual Glo assay kit, using a luminometer (PerkinElmer). Data represent the average±SD of three independent experiments, are expressed as fold-induction compared with negative control, and represent the units of firefly luciferase corrected for the units of renilla luciferase detected in the same plate.\nas §1, with “Figure 3 NH2-COOH-terminal domain” for “An”, “(NC-TDI) assay.” for “between COOH terminal AF2 (activation function 2) and NH2 terminal sequence F^23XXLF^27 is an important step toward the activation of AR [30]. The NC-TDI was measured using the reagents of the CheckMate™/Flexi® Vector Mammalian Two-Hybrid System, Promega (Madison, WI).”, “HeLa” for “Hela”, “c/w” for “compared with”"}, "[3]": {"target": "T2, AR-P766S (Homo sapiens, UniProt P10275, P767S)", "T2 construct": "segments AR 624-919 (wild type or containing mutations F764L, R840C, and P766S); expressed in transfected cells; host or cells: HeLa, transient co-transfection", "T2 sequence (P10275 624-919 P767S)": "T1 sequence (P10275 624-919 F765L) with L142F, P144S", "T2 sequence (P10275 1-660 partner limits assumed)": "T1 sequence (P10275 1-660 partner limits assumed)", "assay_type": "cell-based", "conditions": "doses of 200 nM, compared with wt AR at 0.2 nM", "procedure": "as §1\nas §1, with “Figure 3 NH2-COOH-terminal domain” for “An”, “(NC-TDI) assay.” for “between COOH terminal AF2 (activation function 2) and NH2 terminal sequence F^23XXLF^27 is an important step toward the activation of AR [30]. The NC-TDI was measured using the reagents of the CheckMate™/Flexi® Vector Mammalian Two-Hybrid System, Promega (Madison, WI).”, “HeLa” for “Hela”, “c/w” for “compared with”"}, "[4]": {"target": "T3, AR-R840C (Homo sapiens, UniProt P10275, R841C)", "T3 construct": "segments AR 624-919 (wild type or containing mutations F764L, R840C, and P766S); expressed in transfected cells; host or cells: HeLa, transient co-transfection", "T3 sequence (P10275 624-919 R841C)": "T1 sequence (P10275 624-919 F765L) with L142F, R218C", "T3 sequence (P10275 1-660 partner limits assumed)": "T1 sequence (P10275 1-660 partner limits assumed)", "assay_type": "cell-based", "procedure": "as §1\nas §1, with “Figure 3 NH2-COOH-terminal domain” for “An”, “(NC-TDI) assay.” for “between COOH terminal AF2 (activation function 2) and NH2 terminal sequence F^23XXLF^27 is an important step toward the activation of AR [30]. The NC-TDI was measured using the reagents of the CheckMate™/Flexi® Vector Mammalian Two-Hybrid System, Promega (Madison, WI).”, “HeLa” for “Hela”, “c/w” for “compared with”"}, "[5]": {"target": "T4, wild type AR (Homo sapiens, UniProt P10275)", "T4 construct": "segments AR 624-919 (wild type or containing mutations F764L, R840C, and P766S); expressed in transfected cells; host or cells: HeLa, transient co-transfection", "T4 sequence (P10275 624-919)": "T1 sequence (P10275 624-919 F765L) with L142F", "T4 sequence (P10275 1-660 partner limits assumed)": "T1 sequence (P10275 1-660 partner limits assumed)", "assay_type": "cell-based", "conditions": "ligands at 0.2–200 nM, 24 h", "procedure": "as §1\nas §1, with “Figure 3 NH2-COOH-terminal domain” for “An”, “(NC-TDI) assay.” for “between COOH terminal AF2 (activation function 2) and NH2 terminal sequence F^23XXLF^27 is an important step toward the activation of AR [30]. The NC-TDI was measured using the reagents of the CheckMate™/Flexi® Vector Mammalian Two-Hybrid System, Promega (Madison, WI).”, “HeLa” for “Hela”, “c/w” for “compared with”"}}, "note": "Changes are numbered by the printed parent chain."}
{"smiles": "C[C@@H]1CC2=CC(=O)CC[C@@H]2[C@H]2CC[C@@]3(C)[C@@H](CC[C@]3(C)O)[C@@H]21", "note": "[Mb, Mibolerone]", "values": [{"measurement": "transcriptional activity, % of control", "setting": "[1]", "result": "~30", "unit": "%"}, {"measurement": "NC-TDI, % of wild type receptor", "setting": "[2]; at 0.2 nM", "result": 10, "unit": "%"}, {"measurement": "NC-TDI response", "setting": "[2]; at 200 nM", "result": 3.1, "unit": "fold"}, {"measurement": "NC-TDI rescue (in words)", "setting": "[3]", "result": "rescue the NC-TDI response to the levels observed with wt AR"}, {"measurement": "concentration at which the NC-TDI response saturated", "setting": "[4]", "result": 2, "unit": "nM"}, {"measurement": "NC-TDI maximal response (luciferase activity)", "setting": "[5]", "result": 7.1, "unit": "fold increase"}]}
